Values quoted from earlier work as cited in patent US8821913B2, “Controlled releases system containing temozolomide” (Tasly Holding Group Co., Ltd., priority 2002, dated 2014).
Like-named read-outs stand apart in the source and are kept apart here.

Tests used:
[1] = mouse
[2] = phase I clinical trial

## Cn1nnc2c(C(N)=O)ncn2c1=O [TMZ, Temozolomide]
[1]; i.p.
  half-life time: 1.13 h
[1]; p.o.
  half-life time: 1.29 h
[2]
  half-life time: 1.8 h
  time to reach maximum plasma concentration: ≤ 0.7 h
